Where two headings read alike, the source gives them in different places. Blank lines part the entries; values can stand above or below the molecule they belong to.
Experiments:
HL60 cells [1] = experiment: Standalone cytotoxicity, WST-1 colorimetric assay, HL60; format: cell-based; details: Homo sapiens, HL-60
Description: (§1) All the cell lines were grown at density of 1×10^5 cells per ml and seeded (100 μl of cell suspension/well) on 96-well microtiter plates with or without escalating doses of SMAC-mimic compounds. Cells were incubated at 37° C. in a 5% CO2 fully humidified atmosphere and examined at 24, 48 and 72 hours for cytotoxicity with the WST-1 colorimetric assay. […] Data are expressed as mean percentage of three replicates normalized to the untreated control.

K562 cells [2] = experiment: Standalone cytotoxicity, WST-1 colorimetric assay, K562; format: cell-based; details: Homo sapiens
Description: as §1

MDA-MB-231 cells = experiment: Standalone cytotoxicity, MTT assay, MDA-MB-231; format: cell-based; details: Homo sapiens; for IC50: read-out: IC50 (μM ± standard Deviation); for IC80: read-out: IC80 (μM ± standard Deviation)
Description: Reagents for cell culture were purchased from Sigma unless otherwise indicated below. […] A subcultivation ratio of 1:4 was used.
(§2) The cellular growth inhibitory effect of our compounds was evaluated using the MTT assay (Sigma). After 96 hours of treatment, 10 μl of MTT reagent solution (5 mg of MTT powder/ml diluted in Phosphate Buffer Salt saline solution) were added in each well and allowed to react for 3 hours in the incubator. After 3 hours cells were solubilized in Lysis Buffer (10% SDS/0.1% HCl in water, 100 μl for each well) for 24 hours at 37° C. Finally, the absorbance was measured at 570 nm using a multiplate reader. Absorbance values were collected and IC50/IC80 values were determined using GraphPad Prism 5 software. The experiments were repeated twice.
MDA-MB-231 cells were seeded in 96-well flat bottom cell culture plates at a density of 5000 cells/well in 100 μl of culture medium and allowed to adhere for 24 hours in the incubator. After 24 hours MDA-MB-231 cells were exposed to the compounds at various concentrations for 96 hours in the incubator (50 nM, 100 nM, 200 nM, 500 nM, 1 μM, 5 μM, 10 μM, 50 μM and 100 μM). Each point was done in triplicate.
as §2, with “After” for “The cellular growth inhibitory effect of our compounds was evaluated using the MTT assay (Sigma). After”

ARH77 cell line = experiment: Standalone cytotoxicity, WST-1 colorimetric assay, ARH77; format: cell-based; details: Homo sapiens, ARH-77
Description: as §1, with “HL60 and K562 human cell lines were cultured in RPMI 1640 culture medium supplemented with 10% FBS while the ARH77 and KMS26 cell lines were cultured in IMDM culture medium supplemented with 10% FBS. All” for “All”

K562 cells [3] = experiment: Combination treatment with cytotoxic agents, WST-1 assay, K562; details: Homo sapiens, K562, 72 h, read-out: cell growth/viability, mean percentage normalized to the untreated control
human XIAP BIR3 domain = molecular target: T1, human XIAP BIR3 domain (Homo sapiens, UniProt P98170); experiment: Fluorescence polarization competitive binding, displacement of FITC-SMAC probe from XIAP BIR3-His-tag; details: XIAP BIR3, average of three independent measurements
T1 construct: human XIAP BIR3 domain from residue 241 to 356; made in house; host or cells: Escherichia coli BL21
Description: (§3) Data were analyzed using Prism 4.0 software (Graphpad Software).

[4] = molecular target: T2, human XIAP linker-BIR2-BIR3 (Homo sapiens, UniProt P98170); experiment: Fluorescence polarization competitive binding, displacement of SMAC-1F probe from XIAP linker-BIR2-BIR3-His-tag; details: XIAP linker-BIR2-BIR3, average of three independent measurements
T2 construct: human XIAP from residue 124 to 356 (linker-BIR2-BIR3); made in house; host or cells: Escherichia coli BL21
Description: as §3

KMS26 cell line = experiment: Standalone cytotoxicity, WST-1 colorimetric assay, KMS26; format: cell-based; details: Homo sapiens, KMS-26
Description: as §1

HL60 cells [5] = experiment: Combination treatment with cytotoxic agents, WST-1 assay, HL60; format: cell-based; details: Homo sapiens, HL-60, 72 h; read-out: cell growth/viability, mean percentage normalized to the untreated control
XIAP = XIAP (Homo sapiens, UniProt P98170); details: background statement; cited from earlier work
XIAP, sequence (P98170 whole entry): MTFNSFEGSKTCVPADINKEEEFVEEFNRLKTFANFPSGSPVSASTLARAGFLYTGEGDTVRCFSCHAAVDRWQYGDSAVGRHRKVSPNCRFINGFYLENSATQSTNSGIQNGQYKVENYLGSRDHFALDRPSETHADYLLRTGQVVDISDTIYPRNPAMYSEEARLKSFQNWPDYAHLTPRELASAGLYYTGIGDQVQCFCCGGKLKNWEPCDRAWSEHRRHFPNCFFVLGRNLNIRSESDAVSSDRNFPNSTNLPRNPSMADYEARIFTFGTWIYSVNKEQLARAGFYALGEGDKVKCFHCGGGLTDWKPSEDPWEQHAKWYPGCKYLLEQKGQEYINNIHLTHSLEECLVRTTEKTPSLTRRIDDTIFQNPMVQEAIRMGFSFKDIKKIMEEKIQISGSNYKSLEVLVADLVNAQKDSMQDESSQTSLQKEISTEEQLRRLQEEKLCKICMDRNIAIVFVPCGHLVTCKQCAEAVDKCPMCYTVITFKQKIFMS

T1 sequence (P98170 241-356): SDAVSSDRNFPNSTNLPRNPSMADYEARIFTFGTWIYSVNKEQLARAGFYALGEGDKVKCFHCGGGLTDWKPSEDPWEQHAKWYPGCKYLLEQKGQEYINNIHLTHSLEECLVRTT
T2 sequence (P98170 124-356): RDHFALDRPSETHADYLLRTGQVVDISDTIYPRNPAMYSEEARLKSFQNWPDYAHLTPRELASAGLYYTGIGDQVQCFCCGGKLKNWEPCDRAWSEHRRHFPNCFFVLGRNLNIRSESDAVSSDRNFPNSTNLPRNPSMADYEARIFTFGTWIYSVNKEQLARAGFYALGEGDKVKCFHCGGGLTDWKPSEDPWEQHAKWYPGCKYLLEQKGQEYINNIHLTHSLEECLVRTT

Molecule: CC[C@H](N)C(=O)N[C@@H]1C(=O)N2[C@@H](CC[C@@H]1COC(C)=O)CC[C@H]2C(=O)NC(c1ccccc1)c1ccccc1 [Compound 30a]
- IC50 (HL60 cells [1]; HL60, 24 hrs): > 10000 nM
- IC50 (HL60 cells [1]; HL60, 48 hrs): 1790 nM
- IC50 (HL60 cells [1]; HL60, 72 hrs): 623 nM
- IC50 (K562 cells [2]; K562, 24 hrs): > 10000 nM
- IC50 (K562 cells [2]; K562, 48 hrs): > 10000 nM
- IC50 (K562 cells [2]; K562, 72 hrs): > 10000 nM

Molecule: CC[C@H](N)C(=O)N[C@@H]1C(=O)N2C(CC[C@@H]1CNC(=O)CCC#CC#CCCC(=O)NC[C@H]1CC[C@H]3CC[C@@H](C(=O)NC(c4ccccc4)c4ccccc4)N3C(=O)[C@H]1NC(=O)[C@@H](N)CC)CC[C@H]2C(=O)NC(c1ccccc1)c1ccccc1 (some centres unmarked) [Compound 46a]
- IC50 (MDA-MB-231 cells; MDA-MB-231, 96 hours, MTT): 0.116 ± 0.002 µM
- IC80 (MDA-MB-231 cells; MDA-MB-231, 96 hours, MTT): 0.17 ± 0.002 µM

Molecule: CC[C@H](N)C(=O)N[C@@H]1C(=O)N2[C@@H](CC[C@@H]1Cn1cc(CO[C@H](C)[C@H](NC(=O)[C@H](C)NC)C(=O)N3CCC[C@H]3Cn3nnnc3Sc3ccccc3)nn1)CC[C@H]2C(=O)NC(c1ccccc1)c1ccccc1 [Compound 44a]
- IC50 (ARH77 cell line; ARH77, 24 hrs): > 10000 nM
- IC50 (ARH77 cell line; ARH77, 48 hrs): > 10000 nM
- IC50 (ARH77 cell line; ARH77, 72 hrs): > 10000 nM
- IC50 (MDA-MB-231 cells; MDA-MB-231, 96 hours, MTT): 0.168 ± 0.002 µM
- IC80 (MDA-MB-231 cells; MDA-MB-231, 96 hours, MTT): 0.288 ± 0.003 µM
- viability at 0.0001 µM (K562 cells [3]): 89%

- IC50 (human XIAP BIR3 domain): 324 nM
- IC50 [4]: 85 nM
Molecule: CC[C@H](N)C(=O)N[C@@H]1C(=O)N2[C@@H](CC[C@@H]1CCN)CC[C@H]2C(=O)NC(c1ccccc1)c1ccccc1 [Compound 38a]
- IC50 (MDA-MB-231 cells; MDA-MB-231, 96 hours, MTT): 12.9 ± 0.3 µM
- IC80 (MDA-MB-231 cells; MDA-MB-231, 96 hours, MTT): 33.9 ± 0.7 µM

Molecule: CC(=O)O[C@H]1C(=O)[C@@]2(C)[C@H]([C@H](OC(=O)c3ccccc3)[C@]3(O)C[C@H](OC(=O)[C@H](O)[C@@H](NC(=O)c4ccccc4)c4ccccc4)C(C)=C1C3(C)C)[C@]1(OC(C)=O)CO[C@@H]1C[C@@H]2O [Taxol, taxol, reference compound]
- viability at 0.1 µM (K562 cells [3]): 69%

Molecule: CC[C@H](NC)C(=O)N[C@@H]1C(=O)N2[C@@H](CC[C@@H]1CO)CC[C@H]2C(=O)NC(c1ccccc1)c1ccccc1 [Compound 24g]
- IC50 (MDA-MB-231 cells; MDA-MB-231, 96 h): 0.237 ± 0.003 µM
- IC80 (MDA-MB-231 cells; MDA-MB-231, 96 hours, MTT): 0.87 ± 0.004 µM

Molecule: CC[C@H](N)C(=O)N[C@@H]1C(=O)N2[C@@H](CC[C@@H]1CO)CC[C@H]2C(=O)NC(c1ccccc1)c1ccccc1 [Compound 24a]
- IC50 (HL60 cells [1]; HL60, 24 hrs): > 10000 nM
- IC50 (K562 cells [2]; K562, 24 hrs): > 10000 nM
- IC50 (K562 cells [2]; K562, 48 hrs): > 10000 nM
- IC50 (K562 cells [2]; K562, 72 hrs): > 10000 nM
- IC50 (ARH77 cell line; ARH77, 24 hrs): > 10000 nM
- IC50 (ARH77 cell line; ARH77, 48 hrs): > 10000 nM
- IC50 (ARH77 cell line; ARH77, 72 hrs): > 10000 nM
- IC50 (KMS26 cell line; KMS26, 24 hrs): > 10000 nM
- viability at 0.01 µM (HL60 cells [5]): 110%
- IC80 (MDA-MB-231 cells; MDA-MB-231, 96 hours, MTT): 3.9 ± 0.07 µM
- viability at 0.05 µM (K562 cells [3]): 90%

Molecule: CC[C@H](N)C(=O)N[C@@H]1C(=O)N2[C@@H](CC[C@@H]1CN=[N+]=[N-])CC[C@H]2C(=O)NC(c1ccccc1)c1ccccc1 [Compound 25a]
- IC50 (HL60 cells [1]; HL60, 24 hrs): > 10000 nM
- IC50 (HL60 cells [1]; HL60, 48 hrs): 3320 nM
- IC50 (HL60 cells [1]; HL60, 72 hrs): 1.8 nM
- IC50 (K562 cells [2]; K562, 24 hrs): 4780 nM
- IC50 (K562 cells [2]; K562, 48 hrs): 3950 nM
- IC50 (K562 cells [2]; K562, 72 hrs): 2130 nM

Molecule: CC[C@H](NC)C(=O)N[C@@H]1C(=O)N2[C@@H](CC[C@@H]1CCN)CC[C@H]2C(=O)NC(c1ccccc1)c1ccccc1 [Compound 38d]
- IC50 (MDA-MB-231 cells; MDA-MB-231, 96 h): 2.3 ± 1.2 µM
- IC80 (MDA-MB-231 cells; MDA-MB-231, 96 hours, MTT): 14.8 ± 1 µM

Molecule: CC[C@H](N)C(=O)N[C@@H]1C(=O)N2[C@@H](CC[C@@H]1CN)CC[C@H]2C(=O)NC(c1ccccc1)c1ccccc1 [Compound 26a]
- IC50 (K562 cells [2]; K562, 24 hrs): 593 nM
- IC50 (K562 cells [2]; K562, 48 hrs): 0.06 nM
- IC50 (K562 cells [2]; K562, 72 hrs): 0.08 nM
- IC50 (ARH77 cell line; ARH77, 24 hrs): > 10000 nM
- IC50 (ARH77 cell line; ARH77, 48 hrs): > 10000 nM
- IC50 (ARH77 cell line; ARH77, 72 hrs): > 10000 nM
- IC50 (KMS26 cell line; KMS26, 24 hrs): > 10000 nM
- IC50 (KMS26 cell line; KMS26, 48 hrs): 0.002 nM
- IC50 (KMS26 cell line; KMS26, 72 hrs): 62.3 nM

B1: mature Smac protein: mature Smac/DIABLO protein, endogenous inhibitor of XIAP (protein, UniProt Q9NR28 22-239, looked up)
Diablo IAP-binding …: LCVPVVANFKKRCFSELIRPWHKTVTIGFGVTLCAVPIAQKSEPHSLSSEALMRRAVSLVTDSTSTFLSQTTYALIEAITEYTKAVYTLTSLYRQYTSLLGKMNSEEEDEVWQVIIGARAEMTSKHQEYLKLETTWMTAVGLSEMAAEAAYQTGADQASITARNHIQLVKLQVEEVHQLSRKAETKLAEAQIEELRQKTQEEGEERAESEQEAYLRED
- Kd (XIAP): 420 nM
